Assays:
CEM cells (wild-type) = test: Inhibition of CEM cell growth, wild-type; details: read-out: IC50 (nM) Wild-type; wild-type CEM cells; cell numbers by Coulter Counter; mean and standard deviation from 3 experiments
Method: (§6) CEM cells were incubated with various concentrations of each compound and the effect on. cell numbers was determined using a Coulter Counter. The IC50 was determined from a plot of the percent of control growth versus drug concentration. The data presented are the mean and standard deviation from 3 separate experiments.

araC-resistant CEM cells = test: Inhibition of CEM cell growth, araC-resistant; details: read-out: IC50 (nM) araC-resistant; araC-resistant CEM cells; cell numbers by Coulter Counter; mean and standard deviation from 3 experiments
Method: as §6

[1] = system: protein synthesis in CEM cells; test: Effect on protein synthesis ([3H]leucine incorporation) in CEM cells; format: cell-based; details: 150 nM, average of two experiments
Method: (§1) Radiolabeled precursors of DNA [^3H]dThd, RNA ([^3H]Urd), or protein ([^3H]leucine) were added to each treatment 30 minutes after the addition of each compound. Samples were taken 1, 2, 3 and 4 hours after the addition of radiolabeled precursors, and the incorporation of radioactivity into RNA, DNA, or protein were determined as described (Parker et al, Biochem. Pharmacol. 55: 1673-1681, 1998). Each number represents the average of two experiments.

SC CAKI-1 Renal Tumor = test: Response of SC CAKI-1 Renal Tumor to Treatment; format: in vivo; details: Q 4H × 3 day 7-15
Method: (§2) The following in vivo tests were carried out to illustrate the effectiveness of the compounds of the present invention.

SK-MEL 28 Melanoma = test: In vitro IC50, 72 hour exposure, SRB assay; format: cell-based; details: read-out: IC50 Molar Values
Method: (§3) EXAMPLE 3 The following in vitro tests were carried out.
(§4) The above tests were carried out with a 72 hour exposure to the compound using Natural Red assay for all cell lines except SK-MEL 28 which was done with SRB assay.

[2] = Phosphorylation in cell-free CEM extracts, wild-type; format: biochemical; details: wild-type CEM cell extract; 1 μm substrate
Method: (§5) The number in parentheses is the number of experiments performed. […] At various times after the initiation of the experiment, an aliquot of each reaction volume was removed and placed on DE-81 filters. The filters were washed with 1 mM ammonium formate and ethanol, and the amount of radioactivity on each filter was determined. […] This assay was verified by HPLC.

SC HCT-116 Colon Tumor = test: Response of SC HCT-116 Colon Tumor to Treatment; format: in vivo; details: Q 4H × 3 day 6-14
Method: as §2

[3] = system: DNA synthesis in CEM cells; test: Effect on DNA synthesis ([3H]dThd incorporation) in CEM cells; format: cell-based; details: 150 nM, average of two experiments
Method: as §1

CEM cells [4] = test: Effect of F-dUrd on metabolism (deamination) in CEM cells; format: cell-based; details: 100 nM, incubation time 8 hours
Method: The complete metabolism of each compound was determined as described in the legend to Table 12, and the percent of deaminated metabolites for each compound was determined.

[5] = Phosphorylation in cell-free CEM extracts, araC-resistant; format: biochemical
Method: as §5

[6] = system: RNA synthesis in CEM cells; test: Effect on RNA synthesis ([3H]Urd incorporation) in CEM cells; format: cell-based; details: 150 nM, average of two experiments
Method: as §1

DLD-1 Colon = test: In vitro IC50, 72 hour exposure, Natural Red assay; format: cell-based; details: read-out: IC50 Molar Values
Method: as §3, §4

CAK1-1 Renal = test: In vitro IC50, 72 hour exposure, Natural Red assay; format: cell-based; details: read-out: IC50 Molar Values
Method: as §3, §4

NC1-H23 Lung = test: In vitro IC50, 72 hour exposure, Natural Red assay; format: cell-based; details: read-out: IC50 Molar Values
Method: as §3, §4

PC-3 Prostate = test: In vitro IC50, 72 hour exposure, Natural Red assay; format: cell-based; details: read-out: IC50 Molar Values
Method: as §3, §4

LOX IMV1 Melanoma = test: In vitro IC50, 72 hour exposure, Natural Red assay; format: cell-based; details: read-out: IC50 Molar Values
Method: as §3, §4

ZR-75-1 Mammary = test: In vitro IC50, 72 hour exposure, Natural Red assay; format: cell-based; details: read-out: IC50 Molar Values
Method: as §3, §4

SNB-7 (CNS) = test: In vitro IC50, 72 hour exposure, Natural Red assay; format: cell-based; details: read-out: IC50 Molar Values
Method: as §3, §4

CEM cells [7] = test: Complete metabolism of dCyd, T-dCyd, araC and T-araC in CEM cells; format: cell-based; details: 100 nM, incubation 1 hour
Method: The complete metabolism of each compound was determined: The medium was analyzed for the original compound, its deaminated form using reverse phase HPLC, and H20; the acid-soluble extract was analyzed by SAX HPLC for phosphorylated metabolites; and the incorporation of radioactivity into acid-precipitable material (DNA) was determined.

In the case of `Nc1ccn([C@@H]2O[C@H](CO)[C@@H](O)[C@@H]2O)c(=O)n1` [araC, cytosine arabinoside], the IC50 (CEM cells (wild-type)) is reported as 6 ± 3 nM, the IC50 (araC-resistant CEM cells) is reported as 800 ± 400 nM and the “protein synthesis, Percent of control” value [1] is reported as 96% of control. The “Days Delay (T − C)” value (SC CAKI-1 Renal Tumor; 13.3 Mg/Kg IP) was 11.0 days, the “Days to 3 Doubling” value (SC CAKI-1 Renal Tumor; 13.3 Mg/Kg IP) was 20.5 days and the “Non-Specific Deaths/Total” value (SC CAKI-1 Renal Tumor; 13.3 Mg/Kg IP) was 0/6. The “Tumor Free Surv/Total” value (SC CAKI-1 Renal Tumor; 13.3 Mg/Kg IP) was 0/6, the “Tumor Regression Number of Complete” value (SC CAKI-1 Renal Tumor; 13.3 Mg/Kg IP) was 0 and the “Tumor Regression Number of Partial” value (SC CAKI-1 Renal Tumor; 13.3 Mg/Kg IP) was 0. For the same compound, the “Days Delay (T − C)” value (SC CAKI-1 Renal Tumor; 20 Mg/Kg IP) was 6.2 days, the “Days to 3 Doubling” value (SC CAKI-1 Renal Tumor; 20 Mg/Kg IP) was 15.7 days and the “Non-Specific Deaths/Total” value (SC CAKI-1 Renal Tumor; 20 Mg/Kg IP) was 5/6. For the same compound, the “Toxicity remark under Days Delay (T − C)” value (SC CAKI-1 Renal Tumor; 20 Mg/Kg IP) was “(Toxic)”, the “Tumor Free Surv/Total” value (SC CAKI-1 Renal Tumor; 20 Mg/Kg IP) was 0/6 and the “Tumor Regression Number of Complete” value (SC CAKI-1 Renal Tumor; 20 Mg/Kg IP) was 0. For the same compound, the “Tumor Regression Number of Partial” value (SC CAKI-1 Renal Tumor; 20 Mg/Kg IP) was 0, the “Days Delay (T − C)” value (SC CAKI-1 Renal Tumor; 30 Mg/Kg IP) was 16.2 days and the “Days to 3 Doubling” value (SC CAKI-1 Renal Tumor; 30 Mg/Kg IP) was 25.7 days. For the same compound, the “Non-Specific Deaths/Total” value (SC CAKI-1 Renal Tumor; 30 Mg/Kg IP) was 5/6, the “Toxicity remark under Days Delay (T − C)” value (SC CAKI-1 Renal Tumor; 30 Mg/Kg IP) was “(Toxic)” and the “Tumor Free Surv/Total” value (SC CAKI-1 Renal Tumor; 30 Mg/Kg IP) was 0/6. For the same compound, the “Tumor Regression Number of Complete” value (SC CAKI-1 Renal Tumor; 30 Mg/Kg IP) was 0, the “Tumor Regression Number of Partial” value (SC CAKI-1 Renal Tumor; 30 Mg/Kg IP) was 0 and the IC50 (SK-MEL 28 Melanoma) was 2000 nM. The “Phosphorylation, Wild-type” value [2] was 94 pmoles/mg protein/minute, the “Days Delay (T − C)” value (SC HCT-116 Colon Tumor; 9 Mg/Kg IP) was 2.0 days and the “Days to 2 Doubling” value (SC HCT-116 Colon Tumor; 9 Mg/Kg IP) was 10.9 days. The “Non-Specific Deaths/Total” value (SC HCT-116 Colon Tumor; 9 Mg/Kg IP) was 0/6, the “Tumor Free Surv/Total” value (SC HCT-116 Colon Tumor; 9 Mg/Kg IP) was 0/6 and the “Tumor Regression Number of Complete” value (SC HCT-116 Colon Tumor; 9 Mg/Kg IP) was 0. For the same compound, the “Tumor Regression Number of Partial” value (SC HCT-116 Colon Tumor; 9 Mg/Kg IP) was 0, the “Days Delay (T − C)” value (SC HCT-116 Colon Tumor; 13.3 Mg/Kg IP) was 3.3 days and the “Days to 2 Doubling” value (SC HCT-116 Colon Tumor; 13.3 Mg/Kg IP) was 12.2 days. The “Non-Specific Deaths/Total” value (SC HCT-116 Colon Tumor; 13.3 Mg/Kg IP) was 0/6, the “Tumor Free Surv/Total” value (SC HCT-116 Colon Tumor; 13.3 Mg/Kg IP) was 0/6 and the “Tumor Regression Number of Complete” value (SC HCT-116 Colon Tumor; 13.3 Mg/Kg IP) was 0. For the same compound, the “Tumor Regression Number of Partial” value (SC HCT-116 Colon Tumor; 13.3 Mg/Kg IP) was 0, the “DNA synthesis, Percent of control” value [3] was 8% of control and the “Percent Deamination” value (CEM cells [4]; F-dUrd 0 μM) was 0%. The “Percent Deamination” value (CEM cells [4]; F-dUrd 10 μM) was 10%, the “Phosphorylation, araC-resistant CEM cells” value ([5]; araC-resistant CEM cell extract, 1 μm substrate) was 1.2 pmoles/mg protein/minute and the Percent of wild-type ([5]; phosphorylation in araC-resistant vs wild-type CEM extract) was 1.3% of wild-type. The “RNA synthesis, Percent of control” value [6] was 96% of control, the IC50 (DLD-1 Colon) was 5000 nM and the IC50 (CAK1-1 Renal) was 600 nM. It also gave an IC50 (NC1-H23 Lung) of 300 nM, an IC50 (PC-3 Prostate) of 5000 nM and an IC50 (LOX IMV1 Melanoma) of 1000 nM. The IC50 (ZR-75-1 Mammary) was 400 nM, the IC50 (SNB-7 (CNS)) was 200 nM and the “DNA (percent of total)” value (CEM cells [7]) was 0.4% of total. The “Deaminated Compound (percent of total)” value (CEM cells [7]) was 0% of total, the “H20 (percent of total)” value (CEM cells [7]) was 0% of total and the “Original Compound (percent of total)” value (CEM cells [7]) was 87% of total. For the same compound, the “nucleoside-TP (percent of total)” value (CEM cells [7]) was 13% of total.

Reference: patent US20060287320A1, “Preparation of thioarabinofuranosyl compounds and use thereof” (Southern Research Institute, priority 1998, published 2006)
